Like-named read-outs stand apart in the source and are kept apart here.
Key:
[1] = target: T1, wild-type AR (Homo sapiens, UniProt P10275); test: Wild-type AR antagonist activity test (luciferase reporter in HEK293 cells); format: cell-based; conditions: for IC50: HEK293 cells, luciferase expression, DHT 1.5 nM, 24 hours; for AR antagonist activity, times higher than that of the control enzalutamide: ratio to enzalutamide IC50
T1 construct: expressed in transfected cells; host or cells: HEK293
T1 sequence (P10275 1-920): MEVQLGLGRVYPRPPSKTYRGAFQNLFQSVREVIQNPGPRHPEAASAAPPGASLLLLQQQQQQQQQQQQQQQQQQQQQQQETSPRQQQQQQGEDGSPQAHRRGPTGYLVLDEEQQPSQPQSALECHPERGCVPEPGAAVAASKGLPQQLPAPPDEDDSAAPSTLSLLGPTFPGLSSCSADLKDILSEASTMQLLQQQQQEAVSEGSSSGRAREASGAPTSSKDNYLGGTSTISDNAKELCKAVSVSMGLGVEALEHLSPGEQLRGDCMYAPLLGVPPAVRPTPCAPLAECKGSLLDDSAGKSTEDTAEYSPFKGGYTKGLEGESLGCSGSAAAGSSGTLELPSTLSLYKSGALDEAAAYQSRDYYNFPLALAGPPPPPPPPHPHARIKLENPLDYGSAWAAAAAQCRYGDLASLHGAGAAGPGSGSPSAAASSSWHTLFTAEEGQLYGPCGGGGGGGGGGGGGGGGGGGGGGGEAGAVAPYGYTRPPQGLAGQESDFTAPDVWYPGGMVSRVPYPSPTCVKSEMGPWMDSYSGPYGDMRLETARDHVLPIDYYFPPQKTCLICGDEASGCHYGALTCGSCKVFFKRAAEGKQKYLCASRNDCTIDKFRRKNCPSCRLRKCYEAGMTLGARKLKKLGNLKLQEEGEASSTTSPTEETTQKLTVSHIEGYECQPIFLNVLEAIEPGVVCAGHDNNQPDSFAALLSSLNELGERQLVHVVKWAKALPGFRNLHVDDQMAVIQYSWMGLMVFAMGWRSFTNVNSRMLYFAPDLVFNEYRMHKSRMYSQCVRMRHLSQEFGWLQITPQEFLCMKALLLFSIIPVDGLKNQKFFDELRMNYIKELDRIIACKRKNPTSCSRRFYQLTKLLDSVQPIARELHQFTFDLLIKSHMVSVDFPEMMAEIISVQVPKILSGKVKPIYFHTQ
Description: HEK293 cells were cultured in DMEM containing 10% fetal bovine serum (FBS) at 37° C. with 5% CO2. The cells were then digested with trypsin and counted. A 10 μL/well transfection solution was prepared in opti-MEM containing 5 ng androgen receptor clone, 100 ng pGL4.36 vector, and 315 nL fugene. […] The diluted cell suspension was seeded into 96-well plates at 90 μL (40,000 cells/well), and the plates were incubated for 24 hours. Then, 10 μL of drug solution (including gradient diluted compounds or DMSO) was added, and the plates were incubated for 30 minutes. […] After 24 hours of incubation, 100 μL of Steady-Glo was added to each well of the plate, the plate was shaken at room temperature for 20 minutes, and read on an Envision.

[2] = test system: androgen-dependent organs; test: Hershberger assay, in vivo anti-androgenic activity; parameters: species or system Sprague-Dawley rats; conditions: castrated male rats, 0.4 mg/kg testosterone propionate, 20 mg/kg QD oral, 10 days
Description: The Hershberger assay was used to detect the in vivo anti-androgenic signal transduction activity of the compounds of the present invention. In this assay, compounds of the present invention (14, 33 and 37) were administered to prepubertal castrated male Sprague-Dawley rats in the presence of 0.4 mg/kg testosterone propionate (TP), and the weights of androgen-dependent organs were measured. Dosing continued for 10 days, and measurements were made 24 hours after the last dose. The degree of AR antagonism and subsequent organ growth inhibition was evaluated by comparison with castrated controls. The test compounds were orally administered at 20 mg/kg QD and the endpoint evaluation was performed by measuring the weight changes of 2 androgen-sensitive organs (ASO): seminal vesicles with coagulating glands (SVCG) and ventral prostate (VP). Enzalutamide (ENZ) was used as a positive control.

[3] = test system: 22RV1 prostate cancer cells; test: Anti-proliferative activity against resistant 22RV1 cells expressing AR-V7; format: cell-based; conditions: Homo sapiens; 22RV1 cells expressing AR-V7 splice variant; read-out: Antiproliferative activity IC50
Description: The cells were then digested with trypsin and counted using an automated cell counter to determine cell density. The cell suspension was diluted to the desired density in growth medium. Subsequently, 100 μL of the cell suspension was seeded into 96-well plates and incubated at 37° C. with 5% CO2 for 24 hours. 10 μL of drug solution (including 3-fold serial dilutions of compounds or DMSO) was added to each well, and the plates were incubated at 37° C. with 5% CO2 for 6 days. Prior to measurement, the assay plates were equilibrated to room temperature. 40 μL of CellTiter-Glo® reagent was added to each well. The plates were mixed on an orbital shaker for 2 minutes to induce cell lysis. After incubation at room temperature for 60 minutes to stabilize the luminescence signal, the plates were read on an Envision plate reader.
The experimental procedure was essentially the same as that for LNCaP cells.

[4] = In vivo pharmacokinetics in rats after oral gavage; conditions: male SD rats, PO 10 mg/kg
Description: Male SD rats were randomly divided into 6 groups, 3 rats per group. The rats were fasted but not water-deprived for 12-14 h one day before dosing. The test samples were then dissolved in a solvent of 5% DMSO+30% PEG400+65% (0.5% MC) and administered by gavage at 10 mg/kg. Food was provided 4 h after dosing. Blood samples (0.10 mL) were collected via the orbital sinus at 0, 15, 30 min, 1, 2, 4, 6, 8, and 24 h, with EDTA-K2 as anticoagulant. Blood samples were placed on ice after collection and centrifuged to separate plasma within 30 minutes (centrifugation conditions: 5000 rpm, 10 minutes, 4° C.). 50.0 μL of plasma sample (taken from −80° C. freezer, thawed naturally at room temperature and vortexed for 30 seconds) was added to a 1.5 mL centrifuge tube, followed by addition of 500 μL internal standard solution (methanol (TEDIA, HPLC grade), acetonitrile (TEDIA, HPLC grade), formic acid (FA, ACROS ORGANICS, HPLC grade), water was laboratory-made ultrapure water (100.0 ng·mL−1)). The mixture was vortexed for 60 seconds and centrifuged for 3 minutes (centrifugal force 12000 rpm). 100 μL of the supernatant was transferred to a 96-well injection plate containing an equal volume of water, mixed by shaking, and analyzed by LC-MS/MS with an injection volume of 10 μL. The data acquisition and control system software was Analyst 1.5.1 software (Applied Biosystem). The chromatographic sample peaks were integrated automatically. The ratio of sample peak area to internal standard peak area was used as an indicator for regression with sample concentration.
The pharmacokinetic parameters of representative compounds of the present invention were tested in male SD rats after oral gavage administration at 10 mg/kg according to the above conventional method to examine the pharmacokinetic characteristics of the compounds of the present invention in rats.

SMILES	IC50 [1] [nM]	AR antagonist activity, times higher than that of the control enzalutamide [1] [times]	Growth of androgen-dependent organs (SVCG and VP weight) compared to the castration group [2]	In vivo anti-androgenic activity compared with enzalutamide [2]	IC50 [3] [nM]	Cmax [4] [ng/mL]	Kel [4] [h⁻¹]	MRTPO [4] [h]	T1/2 [4] [h]	tmax [4] [h]	AUC(0-inf) ([4]; rat, plasma) [ng·h/mL]	AUC(0-t) ([4]; rat, plasma) [ng·h/mL]	Cmax ([4]; rat, plasma, read-out: Cmax) [ng/mL]
Cc1cn(C2=CCC3C4CC=C5C[C@@H](NC(=O)c6ccncc6)CC[C@]5(C)C4CC[C@]23C)cn1 (stereo partly drawn) [Compound 14, N-((3S,10R,13S)-10,13-dimethyl-17-(4-methyl-1H-imidazol-1-yl)-2,3,4,7,8,9,10,11,12,13,14,15-dodecahydro-1H-cyclopenta[a]phenanthren-3-yl)isonicotinamide]	247	1.8	significantly inhibited the growth of androgen-dependent organs	activity comparable to enzalutamide	591	2670	0.252	5.12	2.80	2.17	24800	24800	
Cc1cn(C2=CCC3C4CC=C5C[C@@H](NC(=O)c6ccc(F)cc6)CC[C@]5(C)C4CC[C@]23C)cn1 (stereo partly drawn) [Compound 33, N-((3S,10R,13S)-17-(4-methyl-1H-imidazol-1-yl)-10,13-dimethyl-2,3,4,7,8,9,10,11,12,13,14,15-dodecahydro-1H-cyclopenta[a]phenanthren-3-yl)-4-fluorobenzamide]	120	3.6	significantly inhibited the growth of androgen-dependent organs	activity comparable to enzalutamide	624	6431	0.214	6.03	3.28	4.00	69500	68900	
Cc1cn(C2=CCC3C4CC=C5C[C@@H](NC(=O)c6ccc(S(C)(=O)=O)cc6)CC[C@]5(C)C4CC[C@]23C)cn1 (stereo partly drawn) [Compound 35, N-((3S,10R,13S)-17-(4-methyl-1H-imidazol-1-yl)-10,13-dimethyl-2,3,4,7,8,9,10,11,12,13,14,15-dodecahydro-1H-cyclopenta[a]phenanthren-3-yl)-4-(methylsulfonyl)benzamide]	433				651								
Cc1cn(C2=CCC3C4CC=C5C[C@@H](NC(=O)c6ccc(F)cc6F)CC[C@]5(C)C4CC[C@]23C)cn1 (stereo partly drawn) [Compound 37, N-((3S,10R,13S)-17-(4-methyl-1H-imidazol-1-yl)-10,13-dimethyl-2,3,4,7,8,9,10,11,12,13,14,15-dodecahydro-1H-cyclopenta[a]phenanthren-3-yl)-2,4-difluorobenzamide]	235	1.9	significantly inhibited the growth of androgen-dependent organs	activity comparable to enzalutamide	452		0.124	10.0	6.02	6.00	24500	22500	1550

Source: patent US20250073249A1, “STEROID COMPOUND, AND PREPARATION METHOD THEREFOR AND USE THEREOF” (SHANGHAI INSTITUTE OF MATERIA MEDICA, CHINESE ACADEMY OF …, priority 2022, published 2025)
